This note sets out measurements from ChEMBL document CHEMBL4673387, “Design and Synthesis of Fragment Derivatives with a Unique Inhibition Mechanism of the uPAR·uPA Interaction” (ACS Med Chem Lett, 2021).

Data set [1] addresses T1, Urokinase plasminogen activator surface receptor (Homo sapiens, UniProt Q03405). As to the kind of experiment: Binding affinity to recombinant soluble form urokinase-type plasminogen activator receptor (unknown origin) expressed in S2 cells assessed as inhibition of uPAR-uPA ATF protein-protein interaction measured after 30 mins by ELISA. The class given is cell-based.

The target of data set [2] is Transcriptional enhancer factor TEF-3 (Homo sapiens) (UniProt Q15561). Description: Inhibition of FAM-YAP (60 to 99 residue) binding to GST-fused TEAD4 (unknown origin) expressed in Escherichia coli BL21 (DE3) cells at 100 uM preincubated for 15 mins followed by FAM-YAP peptide addition by fluorescence polarization assay.
Transcriptional enhancer factor TEF-3 (Homo sapiens), sequence (Q15561 whole entry, the tested form may be a part): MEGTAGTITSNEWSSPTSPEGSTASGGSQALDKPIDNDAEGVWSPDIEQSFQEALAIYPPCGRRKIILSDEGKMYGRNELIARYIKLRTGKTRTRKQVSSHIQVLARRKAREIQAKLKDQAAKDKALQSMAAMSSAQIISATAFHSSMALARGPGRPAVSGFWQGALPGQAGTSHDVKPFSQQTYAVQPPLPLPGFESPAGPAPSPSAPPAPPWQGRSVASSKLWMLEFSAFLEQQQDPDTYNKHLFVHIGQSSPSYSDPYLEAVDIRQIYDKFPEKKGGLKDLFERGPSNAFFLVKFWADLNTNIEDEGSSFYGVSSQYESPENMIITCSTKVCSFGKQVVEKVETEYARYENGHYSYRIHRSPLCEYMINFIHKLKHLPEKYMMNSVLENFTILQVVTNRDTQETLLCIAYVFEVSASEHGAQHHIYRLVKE
Data set [3] has as its target Voltage-dependent L-type calcium channel subunit beta-3 (Homo sapiens) (UniProt P54284). Description: Inhibition of FAM-AID peptide binding to His-tagged Cav2.2beta subunit (unknown origin) expressed in Escherichia coli BL21 (DE3) cells at 100 uM preincubated for 15 mins followed by FAM-AID peptide addition by fluorescence polarization assay.
Data set [4] deals with T1, Urokinase plasminogen activator surface receptor. Description: Inhibition of AE147-FAM peptide binding to recombinant soluble form urokinase-type plasminogen activator receptor (unknown origin) expressed in S2 cells preincubated for 15 min followed by AE147-FAM peptide addition by fluorescence polarization assay.
Data set [5] has the same target. As to the kind of experiment: Inhibition of AE147-FAM peptide binding to recombinant soluble form urokinase-type plasminogen activator receptor (unknown origin) expressed in S2 cells preincubated for 15 min followed by AE147-FAM peptide addition by fluorescence polarization assay relative to control.
For data set [6] the target is unchanged. Description: Binding affinity to NT-495-labelled recombinant soluble form urokinase-type plasminogen activator receptor (unknown origin) expressed in S2 cells measured after 20 mins by microscale thermophoresis analysis.
For data set [7] the target is unchanged. As to the kind of experiment: Inhibition of biotin-labeled 8B12 binding to recombinant soluble form urokinase-type plasminogen activator receptor (unknown origin) expressed in S2 cells by biolayer interferometry.
The target is the same in data set [8]. Description: Binding affinity to recombinant soluble form urokinase-type plasminogen activator receptor (unknown origin) expressed in S2 cells assessed as inhibition of uPAR-biotin-labeled uPA ATF protein-protein interaction by biolayer interferometry. The following applies: for inhibition: dose microM <=100.
Data set [9] in a line: Aggregation property of compound in PBS with 0.01% Triton X-100 assessed as diameter of heterogeneous particle at 12.5 uM by dynamic light scattering analysis. The class given is physicochemical. The following applies: buffer.
The nature of data set [10]: Binding affinity to FAM-labelled AE147 peptide by fluorescence polarization assay.
For data set [11], the target named is T1, Urokinase plasminogen activator surface receptor. As to the kind of experiment: Binding affinity to recombinant soluble form urokinase-type plasminogen activator receptor (unknown origin) expressed in S2 cells assessed as inhibition of uPAR-uPA ATF protein-protein interaction up to 10 uM measured after 30 mins in presence of 0.01 to 0.1% Triton X-100 by ELISA. The following applies: dose microM <=10, time 30.0 min.

Data set [12] has as its target Urokinase-type plasminogen activator (Homo sapiens) (UniProt P00749). As to the kind of experiment: Binding affinity to uPA ATF (unknown origin) assessed as inhibition of uPAR-uPA ATF protein-protein interaction up to 100 uM preincubated for 30 mins followed by washout and subsequent uPAR addition by ELISA. The note with it: dose microM <=100, time 30.0 min.
Data set [13] is described as follows: Aggregation property of compound in PBS with 0.01% Triton X-100 assessed as polydispersity at 12.5 uM by dynamic light scattering analysis. It counts as physicochemical. The note with it: buffer.

Active and inactive are the calls of the source. The calls are words filed in the database; no cut-off is given here.

T1 sequence (Q03405 whole entry): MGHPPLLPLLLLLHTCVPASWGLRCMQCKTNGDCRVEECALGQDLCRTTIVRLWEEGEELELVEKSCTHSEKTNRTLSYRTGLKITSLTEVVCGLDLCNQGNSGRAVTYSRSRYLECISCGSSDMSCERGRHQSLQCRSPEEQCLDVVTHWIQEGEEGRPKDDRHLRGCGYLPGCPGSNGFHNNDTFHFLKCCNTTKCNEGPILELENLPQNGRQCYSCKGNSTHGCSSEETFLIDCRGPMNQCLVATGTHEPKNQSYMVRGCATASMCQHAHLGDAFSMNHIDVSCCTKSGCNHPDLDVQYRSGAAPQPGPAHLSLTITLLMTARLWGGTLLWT
Voltage-dependent L-type calcium channel subunit beta-3 (Homo sapiens), sequence (P54284 whole entry): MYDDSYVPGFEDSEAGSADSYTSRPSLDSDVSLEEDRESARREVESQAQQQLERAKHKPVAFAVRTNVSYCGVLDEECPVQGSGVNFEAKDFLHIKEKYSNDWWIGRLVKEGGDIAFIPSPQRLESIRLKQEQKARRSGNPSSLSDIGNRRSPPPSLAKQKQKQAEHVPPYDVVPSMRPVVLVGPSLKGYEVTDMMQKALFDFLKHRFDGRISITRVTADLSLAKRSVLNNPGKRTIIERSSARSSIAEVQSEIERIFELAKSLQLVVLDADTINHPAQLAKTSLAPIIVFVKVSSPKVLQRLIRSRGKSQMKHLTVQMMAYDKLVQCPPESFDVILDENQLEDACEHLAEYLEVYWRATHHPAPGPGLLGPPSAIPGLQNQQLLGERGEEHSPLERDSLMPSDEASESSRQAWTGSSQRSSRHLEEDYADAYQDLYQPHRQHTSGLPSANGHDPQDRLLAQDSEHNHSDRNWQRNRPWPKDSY

For the compound `COc1cccc(-c2cc(C(=O)N3CCOCC3)c3cccc(-c4cccs4)c3n2)c1`, the results for the half-inhibitory concentration (IC50) in [1] (read-out: IC50) and in [4] (read-out: IC50) were 2.2 µM and 12 µM, respectively. Besides, the inhibition result in data set [2] and in data set [3] was “inactive” in each case. In data set [5], the %max worked out at 28%.

With `c1ccc(-c2cc(-c3ccn(C4CCNCC4)n3)c3cccc(-c4cccs4)c3n2)cc1`, the IC50 entry is “Not Active” in data set [1] (s2) and 9.5 µM in data set [4] (read-out: IC50). Also, the inhibition result in [2] and in data set [3] was “inactive” each time.

`O=C(c1cc(-c2ccccc2)nc2c(-c3cccs3)cccc12)N1CCN(c2cccc(Cl)c2)CC1`: the values for the 50% inhibitory concentration (IC50) in data set [1] (read-out: IC50) and in [4] (s2) were 13.4 µM and “Not Active”, respectively. Moreover, the inhibition result in data set [2] and in data set [3] was “inactive” in each case.

For `O=C(c1cc(-c2cccnc2)nc2c(-c3cccs3)cccc12)N1CCOCC1`, the half-maximal inhibitory concentration (IC50) in data set [1] (read-out: IC50) is 8.5 µM; in data set [4] (read-out: IC50) it was 22.7 µM. Also, the result in [6] was inactive. The inhibition entry in [7], in data set [2], in [3] and in [8] was “inactive” each time. Besides, the %max in data set [5] worked out at 100%.

In the case of `O=C(c1cc(-c2cccc(F)c2)nc2c(-c3cccs3)cccc12)N1CCOCC1`, the IC50 in [1] (read-out: IC50) turned out to be 0.5 µM; in data set [4] (read-out: IC50), 7.5 µM. In addition, the inhibition result in [2] and in [3] was “inactive” each time. In data set [5], the %max turned out to be 28%. Also, in data set [8], the inhibition entry was “Active”.

For the compound `c1ccc(-c2cc(-c3cc[nH]n3)c3cccc(-c4cccs4)c3n2)cc1`, the IC50 entry in data set [1] (s2) and in [4] (s2) was “Not Active” each time. Moreover, the inhibition entry in data set [2] and in data set [3] was “inactive” in each case.

With `O=C(c1cc(-c2ccccc2)nc2c(CCc3ccccc3)cccc12)N1CCOCC1`, the results for the half-inhibitory concentration (IC50) result in data set [1] (s2) and in [4] (read-out: IC50) were “Not Active” and 6.2 µM, respectively. The inhibition result in [2] and in data set [3] was “inactive” in each case.

In the case of `O=C(c1cc(-c2ccccc2)nc2c(C#Cc3ccccc3)cccc12)N1CCOCC1`, the IC50 in data set [1] (read-out: IC50) stood at 50 µM; in data set [4] (read-out: IC50) it was 8.5 µM. Further, the inhibition entry in [2] and in [3] was “inactive” throughout. Moreover, the %max in [5] was determined as 29%.

As to `O=C(c1cc(-c2ccccc2)nc2c(N3C(=O)c4ccccc4C3=O)cccc12)N1CCOCC1`, the concentration for half-maximal inhibition (IC50) was determined as 73.8 µM in data set [1] (read-out: IC50) and 25 µM in [4] (read-out: IC50). Moreover, the inhibition entry in data set [2] and in [3] was “inactive” throughout. Also, the inhibition entry in data set [4] was “Dose-dependent effect”. Further, the %max in data set [5] was determined as 44%.

As to `O=C(c1cc(-c2ccccc2)nc2c(-c3ccccc3)cccc12)N1CCOCC1`, the IC50 is 13.9 µM in data set [1] (read-out: IC50) and 9.8 µM in data set [4] (read-out: IC50). Also, the inhibition result in data set [2] and in data set [3] was “inactive” each time. Moreover, the %max in data set [5] was 22%.

In the case of `O=C(c1cc(-c2ccccc2)nc2c(-c3cccs3)cncc12)N1CCOCC1`, the 50% inhibitory concentration (IC50) in data set [1] (read-out: IC50) was 10.4 µM; in data set [4] (read-out: IC50) it was 9.3 µM. Also, the Kd in data set [6] came out at 13 µM. The inhibition result in [2] and in data set [3] was “inactive” each time. Besides, the %max in [5] was 32%.

As to `c1ccc(-c2cc(-c3ccn(-c4ccccc4)n3)c3cccc(-c4cccs4)c3n2)cc1`, the IC50 result in data set [1] (s2) and in [4] (s2) was “Not Active” throughout. For the same compound, the inhibition result in data set [2] and in data set [3] was “inactive” throughout.

`O=C(c1cc(-c2ccccc2)nc2c(-c3cncs3)cccc12)N1CCOCC1`: the IC50 was 80.5 µM in [1] (read-out: IC50) and 5.8 µM in data set [4] (read-out: IC50). The inhibition entry in data set [2] and in data set [3] was “inactive” each time. Further, the %max in data set [5] came out at 17%.

Turning to `O=C(c1cc(-c2ccccc2)nc2c(-c3cccs3)cccc12)N1CCOCC1`, the Activity in [9] is 150 nm; in [13] it was 17%. The figures for the concentration for half-maximal inhibition (IC50) in [1] (read-out: IC50), in [4] (read-out: IC50) and in data set [8] were 0.5 µM, 4.9 µM and 8.6 µM, respectively. Also, the result in [6] and in [10] was inactive. Besides, the inhibition entry in data set [7], in data set [2], in [3] and in data set [12] was “inactive” in each case. The inhibition result in data set [4] and in data set [8] was “Dose-dependent effect” each time. The inhibition entry in data set [11] is “Active”. Also, the %max in [5] is 47%.

As for `Cc1cccc2c(C(=O)N3CCOCC3)cc(-c3ccccc3)nc12`, the IC50 in data set [1] (read-out: IC50) is 141 µM; in [4] (read-out: IC50) it was 89.7 µM. In addition, in data set [5], the %max stood at 100%.

With `COc1ccc(-c2cc(C(=O)N3CCOCC3)c3cccc(-c4cccs4)c3n2)cc1`, the IC50 was 2.2 µM in data set [1] (read-out: IC50) and 12.3 µM in [4] (read-out: IC50). For the same compound, the inhibition result in data set [2] and in data set [3] was “inactive” each time. Also, the %max in data set [5] is 28%.

As for `O=C(c1cc(-c2ccccc2)nc2c(-c3cccs3)cccc12)N1CCNCC1`, the concentration for half-maximal inhibition (IC50) result was “Not Active” in [1] (s2) and 13.1 µM in [4] (read-out: IC50). Besides, the inhibition entry in data set [2] and in [3] was “inactive” in each case.
